Measured values published in US10336788B2, “Inhibition of cardiac fibrosis in myocardial infarction” (Moerae Matrix, Inc., priority 2014, dated 2019).
No end group written: not given here.

Tests used:
Assay type in all cases: cell-based, rat
MK2 = assay: Immunoblot analysis of MK2 activity (HNRNPA0, total MK2, p-MK2) in H9C2 cells
Method: Cells were rinsed in PMS and grown in DMEM (cat. #11966-025, Gibco) for 2 hours prior to initiating hypoxia (simulated ischemia). Hypoxia was induced by placing cells in a hypoxia chamber ([…] 150i, Thermo Scientific) in a mixture of 5% CO2/95% N2 to attain a 1% oxygen concentration, according to the manufacturer's instruction. […] The MMI-0100 peptide was added to the cells at the start of the ischemia time. Cells were cultured in 12 well plates. At the time of performing the experiments, all cultures were approximately 70-90% confluent. Three different time points were adopted for each of the three cell lines according to the severity of cell death under hypoxia determined by LDH release: for H9C2 cell line: 8 hr; 16 hr; 24 hr; for HL-1 cell line: 4 hr; 8 hr; 12 hr; for cardiac fibroblast cell line: 16 hr; 32 hr; 48 hr.
The left over cell lysates from the Caspase activity assay were used for the Western blots. […] After blocking with recommended blocking reagents for 1 h at the room temperature, the membranes were incubated overnight at 4° C. with primary antibodies in TBS-T, and then incubated with secondary antibodies conjugated with HRP in TBS-T. HNRNPA0, MAPK2, and phospho-MAPK2 proteins were detected using anti-HNRNPA0 (cat. #HPA036569, 1:1000, Sigma-Aldrich), anti-MAPKAPK2 (cat. #SAB4300553, Sigma-Aldrich), and anti-phospho-MAPKAPK2 (cat. #SAB4300241, 1:1000, Sigma-Aldrich). […]

[1] = tested on: primary cardiac fibroblasts; assay: Caspase 3/7 activity in primary cardiac fibroblasts challenged with 1% hypoxia; settings: 100 μM, 16 and 32 hours of hypoxia
Method: (§1) H9C2 is a myoblast cell line derived from rat myocardium obtained from ATCC® (CRL-1446, ATCC, Manassas, Va.) and cultured according to the recommended protocols. Briefly, cells were maintained at 37° C. with 5% CO2 in DMEM supplemented with 10% fetal bovine serum and antibiotics (100 U/ml penicillin, […] streptomycin) and split at a ratio of 1:4 using 0.05% trypsin every 36 hours. […]
(§2) Cells were rinsed in PMS and grown in DMEM (cat. #11966-025, Gibco) for 2 hours prior to initiating hypoxia (simulated ischemia). […] Three different time points were adopted for each of the three cell lines according to the severity of cell death under hypoxia determined by LDH release: for H9C2 cell line: 8 hr; 16 hr; 24 hr; for HL-1 cell line: 4 hr; 8 hr; 12 hr; for cardiac fibroblast cell line: 16 hr; 32 hr; 48 hr.
(§3) Cell death was first determined using an LDH release assay (cat. #630117, Clontech), according to the manufacturer's instructions. […] Caspase 3/7 activity was next determined using a commercial Caspase 3/7 activity kit (Cat. #G8091, Promega, Madison, Wis. 53711) in a 384 well plate (Cat. #781903, Greiner bio-one) according to the manufacturer's instructions. […] The resulting cell lysates (25 μl, with 0.6 ug total protein) and Caspase-Glo 3/7 Reagent were added to each well in a 1:1 ratio and the luminescence was read (CLARIOstar, BMG LABTECH GmbH). […]

[2] = tested on: primary cardiac fibroblasts; assay: LDH release assay in primary cardiac fibroblasts (1% hypoxia or normoxia)
Method: as §1
as §2, with “[…];” for “for cardiac fibroblast cell line: 16 hr;”
as §3

**Q.** For YARAAARQARAKALARQLGVAA [MMI-0100], which HNRNPA0 expression (MK2; 100 μM, after induction by hypoxia) is on record?
**A.** Its HNRNPA0 expression is “significantly inhibited”.

**Q.** What about the “total MK2 and p-MK2 protein levels” value (MK2; 20 or 100 μM, 1% hypoxia) of the same sequence?
**A.** Its value is “not changed”.

**Q.** And the “caspase 3/7 activity” value [1]?
**A.** Its value is “significantly enhanced”.

**Q.** What about the LDH release ([2]; 16, 32, and 48 hours of hypoxia) of the same sequence?
**A.** The LDH release was “significantly enhanced”.

**Q.** And the “LDH release in normoxic conditions” value ([2]; absence of hypoxia, 4 hours (so in the source))?
**A.** Its value is “did not enhance LDH release”.
